Laboratory results from patent US8410135B2, “4,5 dihydro-(1H)-pyrazole derivatives as cannabinoid CB1 receptor modulators” (Solvay Pharmaceuticals B.V., priority 2007, dated 2013).
Where two headings read alike, the source gives them in different places.

Legend:
human CB1 receptors = biological target: T1, human CB1 receptors (Homo sapiens, UniProt P21554); assay: In vitro cannabinoid-CB1 receptor (ant)agonism, [3H]-arachidonic acid release in CHO cells; assay type: cell-based
T1 construct: expressed in transfected cells; host or cells: CHO cells
T1 sequence (P21554 whole entry): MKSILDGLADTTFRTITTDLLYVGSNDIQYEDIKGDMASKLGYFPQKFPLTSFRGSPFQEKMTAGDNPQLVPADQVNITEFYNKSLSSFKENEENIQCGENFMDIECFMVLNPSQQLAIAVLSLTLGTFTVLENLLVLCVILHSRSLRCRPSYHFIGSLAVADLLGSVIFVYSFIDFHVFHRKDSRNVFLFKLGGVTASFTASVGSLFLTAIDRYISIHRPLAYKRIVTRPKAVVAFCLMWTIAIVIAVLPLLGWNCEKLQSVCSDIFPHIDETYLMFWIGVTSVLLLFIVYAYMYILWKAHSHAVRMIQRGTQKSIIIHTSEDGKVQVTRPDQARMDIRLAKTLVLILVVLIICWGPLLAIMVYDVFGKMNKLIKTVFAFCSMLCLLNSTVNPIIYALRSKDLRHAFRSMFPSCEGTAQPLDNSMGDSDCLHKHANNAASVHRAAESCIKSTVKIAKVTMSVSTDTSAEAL
Protocol: In vitro cannabinoid-CB1 receptor (ant)agonism was assessed with human CB1 receptors cloned in CHO cells. CHO cells were grown in a DMEM culture medium, supplemented with 10% heat-inactivated fetal calf serum. Medium was aspirated and replaced by DMEM, without fetal calf serum, but containing [^3H]-arachidonic acid and incubated overnight in a cell culture stove (5% CO2/95% air; 37° C.; water-saturated atmosphere). During this period [^3H]-arachidonic acid was incorporated in membrane phospholipids. On the test day, medium was aspirated and cells were washed three times using 0.5 ml DMEM, containing 0.2% BSA. CB1 agonist stimulation lead to activation of PLA2 followed by release of [^3H]-arachidonic acid into the medium. This CB1 agonist-induced release was concentration-dependently antagonized by CB1 receptor antagonists, such as rimonabant.

[1] = biological target: T2, human cannabinoid CB2 receptors (Homo sapiens, UniProt P34972); assay: In vitro affinity for cannabinoid-CB2 receptors ([3H]CP-55,940 radioligand binding, CHO cell membranes)
T2 construct: expressed in transfected cells
T2 sequence (P34972 whole entry): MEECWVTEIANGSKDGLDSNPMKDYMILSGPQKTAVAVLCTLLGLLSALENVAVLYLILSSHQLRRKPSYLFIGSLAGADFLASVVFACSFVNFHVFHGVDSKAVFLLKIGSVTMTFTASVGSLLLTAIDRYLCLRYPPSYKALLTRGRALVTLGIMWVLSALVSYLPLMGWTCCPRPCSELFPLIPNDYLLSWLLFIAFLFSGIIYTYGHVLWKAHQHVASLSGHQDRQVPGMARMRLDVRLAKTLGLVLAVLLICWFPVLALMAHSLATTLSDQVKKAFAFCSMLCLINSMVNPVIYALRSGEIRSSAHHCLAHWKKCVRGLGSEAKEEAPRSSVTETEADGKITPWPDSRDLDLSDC
Protocol: (§1) In vitro affinity for cannabinoid-CB2 receptors: was determined using membrane preparations of CHO cells in which human cannabinoid CB2 receptors were stably transfected in conjunction with [^3H]CP-55,940 as radioligand. After incubation of a freshly prepared cell membrane preparation with the [^3H]-ligand, with or without addition of compounds of the invention, separation of bound and free ligand was performed by filtration over glassfiber filters. Radioactivity on the filter was measured by liquid scintillation counting.

[2] = biological target: T3, human cannabinoid CB1 receptors (Homo sapiens, UniProt P21554); assay: In vitro affinity for cannabinoid-CB1 receptors ([3H]CP-55,940 radioligand binding, CHO cell membranes)
T3 construct: expressed in transfected cells
T3 sequence (P21554 whole entry): as the sequence (P21554 whole entry) above
Protocol: as §1, with “cannabinoid-CB1 receptors” for “cannabinoid-CB2 receptors:”, “CB1” for “CB2”

[3] = human CB1 receptors cloned in CHO cells, [3H]-arachidonic acid release
[4] = membranes of CHO cells stably transfected with human CB2, radioligand [3H]CP-55,940, mean of at least three independent experiments, read-out: receptor binding Human CB2 [^3H]-CP-55,940 pKi (converted)
[5] = membranes of CHO cells stably transfected with human CB1, radioligand [3H]CP-55,940, mean of at least three independent experiments, read-out: receptor binding Human CB1 [^3H]-CP-55,940 pKi (converted)

Compound | functional activity h-CB1 agonistic activity [^3H]-Arachidonic acid pEC50 (human CB1 receptors; [3]) | Ki [1] [µM] | Ki [2] [µM] | EC50 (human CB1 receptors) [µM] | Ki [1, 4] [µM] | Ki [2, 5] [µM] | EC50 (human CB1 receptors; human CB1 receptors cloned in CHO cells, [3H]-arachidonic acid release, read-out: functional activity h-CB1 agonistic activity [^3H]-Arachidonic acid pEC50 (converted)) [µM]
CCCCC1=NN(C(=O)N[C@H]2C[C@H]3CC[C@]2(C)C3(C)C)C(C)(C)C1c1ccccc1 (stereo partly drawn) [Compound 2, N-[Endo-(1R,2S,4R)-1,7,7-trimethylbicyclo[2.2.1]hept-2-yl]-3-(n-butyl)-5,5-dimethyl-4-phenyl-4,5-dihydro-(1H)-pyrazole-1-carboxamide] | 7.4 | 0.00398 | 0.0126 |  |  |  | 
CCCCC1=NN(C(=O)N[C@@H]2C[C@H]3CC[C@H]2C3)C(C)(C)C1c1ccccc1 (relative stereo) [Compound 19, N-(rel-exo-bicyclo[2.2.1]hept-2-yl)-3-(n-butyl)-5,5-dimethyl-4-phenyl-4,5-dihydro-(1H)-pyrazole-1-carboxamide] |  | 0.00794 | 0.0251 | 0.1 |  |  | 
CCCCC1=NN(C(=O)NC(C)(C)c2ccccc2)C(C)(C)C1c1ccccc1 (stereo not drawn) [Compound 1, N-(1-methyl-1-phenyl-ethyl)-3-(n-butyl)-5,5-dimethyl-4-phenyl-4,5-dihydro-(1H)-pyrazole-1-carboxamide] | 8.1 |  |  |  | 0.00398 | 0.00794 | 
CCCCC1=NN(C(=O)CC(C)CC(C)(C)C)C(C)(C)C1c1ccccc1 (mixture of isomers) [Compound 39, [3-(n-butyl)-5,5-dimethyl-4-phenyl-4,5-dihydro-(1H)-pyrazol-1-yl]-3,5,5-trimethylhexan-1-one] |  |  |  |  | 0.0126 | 0.1 | 0.0631
